Experimental data published in ChEMBL document CHEMBL2396585, “Synthesis and biological evaluation of sorafenib- and regorafenib-like sEH inhibitors” (Bioorg Med Chem Lett, 2013).
Active and inactive are the calls of the source. No cut-off for these calls is given here.

Key:
HUVEC [1] = experiment: cells; settings: Homo sapiens, 72 h
Description: (§1) Antiproliferative activity against HUVEC after 72 hrs by MTT assay

Huh-7 = experiment: Cytotoxicity against human HuH7 cells by MTT assay
HepG2 = experiment: Cytotoxicity against human HepG2 cells by MTT assay
[2] = target: Vascular endothelial growth factor receptor 2 (Homo sapiens) (UniProt P35968); experiment: Inhibition of VEGFR-2 (unknown origin) at 10 uM after 1 hr by luminescence assay
[3] = target: Serine/threonine-protein kinase B-raf (Homo sapiens, UniProt P15056, V600E); experiment: Inhibition of B-RAF V600E mutant (unknown origin) using MEK1 as substrate
[4] = target: T1, Bifunctional epoxide hydrolase 2 (Homo sapiens, UniProt P34913); experiment: Inhibition of human recombinant soluble epoxide hydrolase assessed as cyano(6-methoxy-naphthalen-2-yl)methyl trans-[(3-phenyloxyran-2-yl)methyl] carbonate conversion to 6-methoxy-2-naphthaldehyde preincubated for 5 mins prior to substrate addition by fluorescence assay
T1 sequence (P34913 whole entry): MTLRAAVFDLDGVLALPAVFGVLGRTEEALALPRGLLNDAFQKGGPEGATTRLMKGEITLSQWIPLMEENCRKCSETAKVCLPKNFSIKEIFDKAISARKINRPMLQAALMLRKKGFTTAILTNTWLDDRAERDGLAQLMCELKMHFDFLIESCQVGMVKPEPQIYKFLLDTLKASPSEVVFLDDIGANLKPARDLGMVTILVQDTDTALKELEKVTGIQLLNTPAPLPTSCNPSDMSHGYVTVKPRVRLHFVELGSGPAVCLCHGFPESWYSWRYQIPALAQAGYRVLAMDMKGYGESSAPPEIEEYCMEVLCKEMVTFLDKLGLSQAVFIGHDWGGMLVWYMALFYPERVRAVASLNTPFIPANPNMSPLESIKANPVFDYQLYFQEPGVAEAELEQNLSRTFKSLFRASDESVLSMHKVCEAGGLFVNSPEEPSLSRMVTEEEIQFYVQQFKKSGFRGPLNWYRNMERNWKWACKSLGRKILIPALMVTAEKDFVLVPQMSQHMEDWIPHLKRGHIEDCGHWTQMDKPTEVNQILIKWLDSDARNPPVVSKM

[5] = target: RAF proto-oncogene serine/threonine-protein kinase (Homo sapiens, UniProt P04049); experiment: Inhibition of full length recombinant c-RAF (unknown origin) using MEK1 as substrate after 1 hr by luminescence assay
[6] = target: Vascular endothelial growth factor receptor 1 (Homo sapiens) (UniProt P17948); experiment: Inhibition of recombinant FLT-1 (unknown origin) at 10 uM
[7] = target: Tyrosine-protein kinase ABL2 (Homo sapiens) (UniProt P42684); experiment: Inhibition of recombinant ABL-2 (unknown origin) at 10 uM
[8] = target: Platelet-derived growth factor receptor beta (Homo sapiens) (UniProt P09619); experiment: Inhibition of recombinant PDGFRbeta (unknown origin) at 10 uM
[9] = target: Platelet-derived growth factor receptor alpha (Homo sapiens) (UniProt P16234); experiment: Inhibition of recombinant PDGFRalpha (unknown origin) at 10 uM
[10] = target: Fibroblast growth factor receptor 2 (Homo sapiens) (UniProt P21802); experiment: Inhibition of recombinant FGFR-2 (unknown origin) at 10 uM
[11] = target: Receptor-type tyrosine-protein kinase FLT3 (Homo sapiens) (UniProt P36888); experiment: Inhibition of recombinant FLT-3 (unknown origin) at 10 uM
[12] = target: Glycogen synthase kinase-3 alpha (Homo sapiens) (UniProt P49840); experiment: Inhibition of recombinant GSK3alpha (unknown origin) at 10 uM
[13] = target: T2, 3-phosphoinositide-dependent protein kinase 1 (Homo sapiens) (UniProt O15530); experiment: Inhibition of recombinant PDPK-1 (unknown origin) at 10 uM
T2 sequence (whole entry): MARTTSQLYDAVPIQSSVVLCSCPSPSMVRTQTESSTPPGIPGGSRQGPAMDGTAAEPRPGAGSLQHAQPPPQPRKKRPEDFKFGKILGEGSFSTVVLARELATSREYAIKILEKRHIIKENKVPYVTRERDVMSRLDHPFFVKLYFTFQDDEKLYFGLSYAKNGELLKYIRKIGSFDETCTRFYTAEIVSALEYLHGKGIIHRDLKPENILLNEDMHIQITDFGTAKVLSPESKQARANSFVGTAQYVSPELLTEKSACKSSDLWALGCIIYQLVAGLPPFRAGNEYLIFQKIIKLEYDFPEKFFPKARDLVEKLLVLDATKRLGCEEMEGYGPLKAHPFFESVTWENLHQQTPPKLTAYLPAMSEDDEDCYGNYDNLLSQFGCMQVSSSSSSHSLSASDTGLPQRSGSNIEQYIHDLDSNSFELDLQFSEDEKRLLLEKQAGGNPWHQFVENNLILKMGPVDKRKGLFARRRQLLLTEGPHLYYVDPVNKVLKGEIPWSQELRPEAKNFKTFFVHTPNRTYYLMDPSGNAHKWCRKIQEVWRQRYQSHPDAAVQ

[14] = target: Vascular endothelial growth factor receptor 2 (Homo sapiens) (UniProt P35968); experiment: Inhibition of recombinant KDR (unknown origin) at 10 uM
[15] = target: Hepatocyte growth factor receptor (Homo sapiens) (UniProt P08581); settings: at 10 µM
Description: Inhibition of recombinant MET (unknown origin) at 10 uM

HUVEC [16] = system: HUVEC
Description: as §1

RAF proto-oncogene serine/threonine-protein kinase, sequence (P04049 whole entry): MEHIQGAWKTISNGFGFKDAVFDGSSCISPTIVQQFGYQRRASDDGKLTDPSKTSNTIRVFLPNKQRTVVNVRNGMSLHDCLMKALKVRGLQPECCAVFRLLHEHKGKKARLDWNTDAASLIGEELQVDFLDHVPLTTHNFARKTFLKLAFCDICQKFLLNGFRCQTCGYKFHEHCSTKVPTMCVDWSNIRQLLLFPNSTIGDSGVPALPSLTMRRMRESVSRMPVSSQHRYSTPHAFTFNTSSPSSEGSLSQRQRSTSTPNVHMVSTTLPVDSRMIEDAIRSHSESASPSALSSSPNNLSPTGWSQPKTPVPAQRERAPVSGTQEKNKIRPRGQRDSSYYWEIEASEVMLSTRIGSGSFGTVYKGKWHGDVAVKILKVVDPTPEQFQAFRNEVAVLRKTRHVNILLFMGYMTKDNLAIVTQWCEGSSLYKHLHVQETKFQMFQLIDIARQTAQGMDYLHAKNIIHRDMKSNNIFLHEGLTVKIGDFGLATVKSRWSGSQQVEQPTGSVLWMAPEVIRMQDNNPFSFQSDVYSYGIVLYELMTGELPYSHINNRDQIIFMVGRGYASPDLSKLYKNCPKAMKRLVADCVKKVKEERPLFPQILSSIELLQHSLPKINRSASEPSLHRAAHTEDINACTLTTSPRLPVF
Vascular endothelial growth factor receptor 2 (Homo sapiens), sequence (P35968 whole entry): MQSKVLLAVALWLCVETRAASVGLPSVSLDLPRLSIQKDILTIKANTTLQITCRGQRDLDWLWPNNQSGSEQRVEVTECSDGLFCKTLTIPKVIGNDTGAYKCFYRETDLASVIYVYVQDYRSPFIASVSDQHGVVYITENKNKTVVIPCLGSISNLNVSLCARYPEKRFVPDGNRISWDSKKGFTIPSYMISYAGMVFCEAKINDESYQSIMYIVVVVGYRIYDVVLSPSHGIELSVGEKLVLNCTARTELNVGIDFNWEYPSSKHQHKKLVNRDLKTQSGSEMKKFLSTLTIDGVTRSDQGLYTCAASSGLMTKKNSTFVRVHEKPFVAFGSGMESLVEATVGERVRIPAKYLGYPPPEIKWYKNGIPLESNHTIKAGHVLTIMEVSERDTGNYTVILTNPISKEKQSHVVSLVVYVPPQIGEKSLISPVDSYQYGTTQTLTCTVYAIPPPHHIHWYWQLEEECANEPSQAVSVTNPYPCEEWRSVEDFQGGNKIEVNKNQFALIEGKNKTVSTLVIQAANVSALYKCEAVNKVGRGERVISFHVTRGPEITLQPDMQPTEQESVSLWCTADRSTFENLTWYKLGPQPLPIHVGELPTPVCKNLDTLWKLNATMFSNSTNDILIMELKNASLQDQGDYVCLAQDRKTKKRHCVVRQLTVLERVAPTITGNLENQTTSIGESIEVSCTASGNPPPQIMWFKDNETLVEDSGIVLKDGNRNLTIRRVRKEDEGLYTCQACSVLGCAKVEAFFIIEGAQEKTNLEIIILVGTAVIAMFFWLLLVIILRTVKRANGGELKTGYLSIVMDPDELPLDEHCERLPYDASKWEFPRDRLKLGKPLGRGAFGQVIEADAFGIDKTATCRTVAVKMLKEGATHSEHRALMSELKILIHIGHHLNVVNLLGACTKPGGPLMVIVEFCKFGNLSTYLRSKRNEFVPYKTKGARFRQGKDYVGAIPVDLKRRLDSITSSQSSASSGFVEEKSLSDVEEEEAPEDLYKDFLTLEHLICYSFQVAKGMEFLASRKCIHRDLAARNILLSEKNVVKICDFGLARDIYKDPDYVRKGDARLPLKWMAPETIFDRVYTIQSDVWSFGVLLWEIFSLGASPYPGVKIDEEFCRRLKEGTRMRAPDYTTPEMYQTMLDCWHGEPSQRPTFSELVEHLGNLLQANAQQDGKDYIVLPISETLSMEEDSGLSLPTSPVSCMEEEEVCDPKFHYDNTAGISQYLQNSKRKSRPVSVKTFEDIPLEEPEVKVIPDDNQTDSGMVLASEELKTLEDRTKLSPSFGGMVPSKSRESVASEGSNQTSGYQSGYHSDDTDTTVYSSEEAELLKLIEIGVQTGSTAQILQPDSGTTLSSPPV
Vascular endothelial growth factor receptor 1 (Homo sapiens), sequence (P17948 whole entry): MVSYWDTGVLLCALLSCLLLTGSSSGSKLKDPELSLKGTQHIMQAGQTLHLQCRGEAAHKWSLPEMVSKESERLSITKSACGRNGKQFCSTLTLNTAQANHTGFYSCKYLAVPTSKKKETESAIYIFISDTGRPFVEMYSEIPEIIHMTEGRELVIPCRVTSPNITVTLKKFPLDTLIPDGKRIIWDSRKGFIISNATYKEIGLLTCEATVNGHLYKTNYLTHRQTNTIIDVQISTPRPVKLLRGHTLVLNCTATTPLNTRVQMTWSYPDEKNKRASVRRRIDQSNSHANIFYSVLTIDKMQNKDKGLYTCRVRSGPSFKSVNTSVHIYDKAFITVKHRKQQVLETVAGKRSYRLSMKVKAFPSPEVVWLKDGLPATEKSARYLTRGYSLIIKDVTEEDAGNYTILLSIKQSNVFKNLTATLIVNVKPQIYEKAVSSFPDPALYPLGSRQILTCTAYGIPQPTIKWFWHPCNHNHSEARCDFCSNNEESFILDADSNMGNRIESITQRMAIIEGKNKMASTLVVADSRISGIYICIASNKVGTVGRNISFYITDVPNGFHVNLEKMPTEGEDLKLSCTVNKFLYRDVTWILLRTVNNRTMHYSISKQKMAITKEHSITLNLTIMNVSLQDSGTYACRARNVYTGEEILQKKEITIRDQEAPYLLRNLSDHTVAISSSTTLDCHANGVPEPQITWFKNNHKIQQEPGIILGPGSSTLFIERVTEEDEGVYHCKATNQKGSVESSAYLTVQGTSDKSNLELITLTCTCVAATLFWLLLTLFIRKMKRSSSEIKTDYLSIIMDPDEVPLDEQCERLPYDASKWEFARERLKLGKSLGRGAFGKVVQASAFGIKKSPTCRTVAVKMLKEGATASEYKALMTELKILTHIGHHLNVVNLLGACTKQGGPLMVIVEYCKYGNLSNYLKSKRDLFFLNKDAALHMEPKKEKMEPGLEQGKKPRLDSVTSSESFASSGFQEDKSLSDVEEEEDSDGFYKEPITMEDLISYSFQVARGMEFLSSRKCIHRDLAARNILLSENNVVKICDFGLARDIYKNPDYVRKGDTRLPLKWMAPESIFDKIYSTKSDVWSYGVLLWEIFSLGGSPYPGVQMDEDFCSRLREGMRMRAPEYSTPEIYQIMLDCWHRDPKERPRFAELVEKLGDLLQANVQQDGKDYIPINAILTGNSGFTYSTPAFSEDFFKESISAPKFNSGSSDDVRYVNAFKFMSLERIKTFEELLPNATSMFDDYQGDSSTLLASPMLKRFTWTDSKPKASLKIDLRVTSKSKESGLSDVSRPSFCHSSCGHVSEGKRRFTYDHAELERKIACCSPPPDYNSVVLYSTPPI
Platelet-derived growth factor receptor alpha (Homo sapiens), sequence (P16234 whole entry): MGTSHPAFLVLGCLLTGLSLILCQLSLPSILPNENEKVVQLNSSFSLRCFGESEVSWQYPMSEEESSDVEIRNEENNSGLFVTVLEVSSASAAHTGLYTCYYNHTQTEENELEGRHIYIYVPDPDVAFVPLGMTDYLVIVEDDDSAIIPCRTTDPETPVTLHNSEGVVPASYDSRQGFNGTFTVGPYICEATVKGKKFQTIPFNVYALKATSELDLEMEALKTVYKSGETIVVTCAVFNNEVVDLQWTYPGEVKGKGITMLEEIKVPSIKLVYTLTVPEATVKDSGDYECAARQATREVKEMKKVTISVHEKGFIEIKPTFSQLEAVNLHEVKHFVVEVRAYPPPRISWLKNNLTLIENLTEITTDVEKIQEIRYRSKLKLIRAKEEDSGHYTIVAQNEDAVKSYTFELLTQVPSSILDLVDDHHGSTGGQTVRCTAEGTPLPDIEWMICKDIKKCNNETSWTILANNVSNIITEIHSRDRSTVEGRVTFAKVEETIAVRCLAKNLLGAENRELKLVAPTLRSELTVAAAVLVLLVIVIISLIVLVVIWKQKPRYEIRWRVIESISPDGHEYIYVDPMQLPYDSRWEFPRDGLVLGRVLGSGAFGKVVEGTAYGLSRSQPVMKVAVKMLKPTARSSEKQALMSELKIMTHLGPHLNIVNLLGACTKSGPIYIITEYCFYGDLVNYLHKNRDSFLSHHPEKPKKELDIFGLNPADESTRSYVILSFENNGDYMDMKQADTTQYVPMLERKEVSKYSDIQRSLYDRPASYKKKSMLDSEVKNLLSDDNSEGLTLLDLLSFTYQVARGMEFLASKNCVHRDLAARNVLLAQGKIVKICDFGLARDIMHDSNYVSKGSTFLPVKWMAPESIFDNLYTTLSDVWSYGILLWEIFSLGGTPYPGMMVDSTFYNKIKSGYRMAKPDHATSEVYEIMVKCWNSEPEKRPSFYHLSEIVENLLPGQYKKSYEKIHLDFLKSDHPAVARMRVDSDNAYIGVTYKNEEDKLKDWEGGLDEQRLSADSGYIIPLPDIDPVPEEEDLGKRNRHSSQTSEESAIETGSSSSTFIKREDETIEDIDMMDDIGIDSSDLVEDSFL
Glycogen synthase kinase-3 alpha (Homo sapiens), sequence (P49840 2-483 limits assumed): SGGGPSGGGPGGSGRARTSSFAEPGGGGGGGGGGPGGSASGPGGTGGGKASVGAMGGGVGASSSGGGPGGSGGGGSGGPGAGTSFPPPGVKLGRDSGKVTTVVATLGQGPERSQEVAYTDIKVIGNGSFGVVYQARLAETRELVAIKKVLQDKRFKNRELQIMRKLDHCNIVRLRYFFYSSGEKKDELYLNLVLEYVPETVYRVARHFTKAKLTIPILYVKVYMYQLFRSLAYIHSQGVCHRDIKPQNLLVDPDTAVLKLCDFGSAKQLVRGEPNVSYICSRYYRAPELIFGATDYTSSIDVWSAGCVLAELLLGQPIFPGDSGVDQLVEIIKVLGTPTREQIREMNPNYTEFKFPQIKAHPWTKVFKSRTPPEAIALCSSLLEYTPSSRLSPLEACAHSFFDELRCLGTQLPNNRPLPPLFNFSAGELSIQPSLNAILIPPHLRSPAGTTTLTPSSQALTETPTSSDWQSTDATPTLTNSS

| SMILES | GI50 (HUVEC [1]) [µM] | GI50 (Huh-7; Homo sapiens, Huh-7) [µM] | GI50 (HepG2; Homo sapiens, HepG2) [µM] | IC50 [4] [µM] | IC50 [5] [µM] | other results |
| --- | --- | --- | --- | --- | --- | --- |
| CNC(=O)c1cc(O[C@H]2CC[C@H](NC(=O)Nc3ccc(Cl)c(C(F)(F)F)c3)CC2)ccn1 | 11 | 8 | 7 | – | – | inhibition [2]: Active |
| CNC(=O)c1cc(Oc2ccc(NC(=O)Nc3ccc(OC(F)(F)F)cc3)cc2)ccn1 | > 25 | 7 | 7 | – | – | IC50 [3]: > 5 µM; inhibition [2]: Active |
| CNC(=O)c1cc(Oc2ccc(NC(=O)Nc3ccc(Cl)c(C(F)(F)F)c3)c(F)c2)ccn1 [REGORAFENIB] | – | – | – | 0.0005 | – | – |
| CNC(=O)c1cccc(O[C@H]2CC[C@H](NC(=O)Nc3ccc(Cl)c(C(F)(F)F)c3)CC2)c1 | 11 | 7.5 | 6.5 | 0.001 | 0.293 | – |
| O=C(NC12CC3CC(CC(C3)C1)C2)N[C@H]1CC[C@H](Oc2ccc(C(=O)O)cc2)CC1 | – | – | – | – | – | inhibition [6]: inactive; inhibition [7]: inactive; inhibition [8]: inactive; inhibition [9]: inactive; inhibition [10]: inactive; inhibition [11]: inactive; inhibition [12]: inactive; inhibition [13]: inactive; inhibition [14]: inactive |
| CS(=O)(=O)N1CCC(NC(=O)Nc2ccc(OC(F)(F)F)cc2)CC1 | > 25 | > 25 | > 25 | – | > 10 | – |
| CNC(=O)c1ccc(O[C@H]2CC[C@H](NC(=O)Nc3ccc(Cl)c(C(F)(F)F)c3)CC2)cc1 | > 25 | 16 | > 25 | – | – | – |
| CCN(CC)CCNC(=O)c1c(C)[nH]c(/C=C2\C(=O)Nc3ccc(F)cc32)c1C [SUNITINIB] | – | – | – | > 10 | – | – |
| CNC(=O)c1ccc(O[C@H]2CC[C@H](NC(=O)Nc3ccc(Cl)c(C(F)(F)F)c3)CC2)cn1 | 10.5 | 8 | 7 | – | – | inhibition [2]: Active |
| CNC(=O)c1cc(O[C@H]2CC[C@@H](NC(=O)Nc3ccc(Cl)c(C(F)(F)F)c3)CC2)ccn1 | 10 | 8.5 | 7.5 | – | – | – |
| CNC(=O)c1ccc(O[C@H]2CC[C@H](NC(=O)Nc3ccc(OC(F)(F)F)cc3)CC2)cc1 | > 25 | 5.5 | 7 | – | > 10 | – |
| O=C(Nc1ccc(OC(F)(F)F)cc1)N[C@H]1CC[C@H](Oc2ccc(C(=O)O)cc2)CC1 | – | – | – | – | – | inhibition [6]: inactive; GI50 (Huh-7): 20 µM; inhibition [7]: inactive; inhibition [15]: inactive; inhibition [8]: inactive; GI50 (HepG2): 15 µM; GI50 (HUVEC [16]): > 25 µM; inhibition [9]: inactive; inhibition [10]: inactive; inhibition [11]: inactive; inhibition [12]: inactive; inhibition [13]: inactive; inhibition [14]: inactive |
| O=C(Nc1ccc(Cl)c(C(F)(F)F)c1)N[C@H]1CC[C@H](Oc2ccc(C(=O)O)cc2)CC1 | 25 | > 25 | > 25 | 0.0005 | 4.3 | – |
| CN(C)C(=O)c1cc(O[C@H]2CC[C@H](NC(=O)Nc3ccc(Cl)c(C(F)(F)F)c3)CC2)ccn1 | – | 8 | 10 | 0.0005 | > 10 | – |
| CNC(=O)c1cc(Oc2ccc(NC(=O)NC34CC5CC(CC(C5)C3)C4)cc2)ccn1 | 25 | 7 | 10 | – | 1 | IC50 [3]: > 5 µM; inhibition [2]: Active |
| CNC(=O)c1ccc(O[C@H]2CC[C@H](NC(=O)NC34CC5CC(CC(C5)C3)C4)CC2)cc1 | > 25 | 5.5 | 7 | – | > 10 | – |
| CNC(=O)c1cc(O[C@H]2CC[C@H](NC(=O)Nc3ccc(OC(F)(F)F)cc3)CC2)ccn1 | > 25 | 7 | 7 | – | > 10 | – |
| O=C(Nc1ccc(Cl)c(C(F)(F)F)c1)N[C@H]1CC[C@H](Oc2cccc(C(=O)O)c2)CC1 | 10.5 | > 25 | > 25 | 0.0086 | > 10 | – |
